Measured values taken from patent US8329644B2, “Lantibiotic-based compounds having antimicrobial activity” (Novacta Biosystems Limited, priority 2007, dated 2012).
≈ marks a conversion by molar mass, not a printed value. Like-named read-outs stand apart in the source and are kept apart here.

Legend:
Water solubility = assay type: physicochemical; details: aqueous
Description: Typically, compounds of the invention were isolated using phosphate buffers.

[1] = Stability in simulated gastric fluid (SGF); assay type: in vitro ADME; details: 37° C., analytical HPLC
Experimental: (§1) Nisin, mersacidin, compound I and compound III were tested for their susceptibility towards enzymatic digestion in the stomach. Nisin, mersacidin and compound III were tested for their susceptibility towards enzymatic digestion in the intestine. The SGF and SIF were based on the standard USP solutions for simulated gastric and simulated intestinal fluids and their activity confirmed against Bovine Serum Albumin (Hilger et al, Clin. Exp. Immunol. 2001, 123, 387-94). The compounds were incubated in SGF or SIF at 37° C. and their concentrations quantified by analytical HPLC (UV detection at 210 nm). The potential degradation of each compound was also monitored qualitatively by measuring in vitro antibacterial activity against Micrococcus luteus.

[2] = rat, 100 mg/kg oral
Experimental: Male Sprague-Dawley rats were dosed with compound I at 100 mg/kg via the oral route. Faeces and urine were collected over a 48 h period in two batches (at 24 h and 48 h post dose). Blood samples were taken at various time points for the first 24 h.

E. faecium = test: MIC susceptibility testing, E. faecium; assay type: cell-based; details: Enterococcus faecium
Experimental: (§2) Susceptibility testing for all aerobic organisms with the exception of Streptococcus pneumoniae was performed by two-fold serial antibiotic dilutions in Mueller-Hinton Broth supplemented with 50 μg/ml Ca^2+ unless otherwise noted. Susceptibility testing for S. pneumoniae was performed by two-fold serial antibiotic dilutions in Brain-Heart-Infusion Broth supplemented with 50 μg/ml Ca^2+ unless otherwise noted. Actively growing broth cultures were diluted to contain […] by adjusting to an OD600 of 0.2-0.3. They were then diluted a further 1:100 in fresh sterile broth. The assays were performed in duplicate in sterile 96-well microtitre plates in a total volume of 200 μl (160 μl broth, 20 μl antimicrobial agent, 20 μl inoculum) in a concentration range from 64 μg/ml to 0.06 μg/ml. […] Clinical isolates of Clostridium difficile were tested in Wilkins-Chalgren Anaerobe Agar under anaerobic conditions. In all cases, vancomycin was used as a reference antibiotic

E. faecalis = test: MIC susceptibility testing, E. faecalis; assay type: cell-based; details: Enterococcus faecalis; E. faecalis 29212; Table 2; read-out: MIC
Experimental: as §2

S. aureus = test: MIC susceptibility testing, S. aureus; assay type: cell-based, Staphyloccus aureus; details: Staphylococcus aureus, Table 2, read-out: MIC
Experimental: as §2

S. epidermidis = test: MIC susceptibility testing, S. epidermidis; assay type: cell-based, Staphylococcus epidermidis; details: Staphylococcus epidermidis
Experimental: as §2

M. luteus = test: MIC susceptibility testing, M. luteus; assay type: cell-based; details: Micrococcus luteus; M. luteus 4698; Table 2; read-out: MIC
Experimental: as §2

S. pneumoniae = test: MIC susceptibility testing, S. pneumoniae (Brain-Heart-Infusion Broth); assay type: cell-based, Streptococcus pneumoniae; details: Streptococcus pneumoniae; S. pneumoniae R6; Table 2; read-out: MIC
Experimental: as §2

Clostridium difficile = test: MIC, Clostridium difficile in Wilkins-Chalgren Anaerobe Agar; assay type: cell-based; parameters: key: MIC in μg/ml (two-fold dilutions, 0.06–64)
Experimental: as §2

E. coli = test: MIC against intestinal flora organisms, E. coli; assay type: cell-based; details: for MIC: Escherichia coli, read-out: Minimal Inhibitory Concentration (MIC)
Experimental: as §2

[3] = tested on: Bifidobacterium adolescentis; test: MIC against intestinal flora organisms, Bifidobacterium adolescentis; assay type: cell-based; details: NCTC11814; Bifidobacterium adolescentis NCTC 11814; Table 5; read-out: Minimal Inhibitory Concentration (MIC)
Bifidobacterium longum = test: MIC against intestinal flora organisms, Bifidobacterium longum; assay type: cell-based; details: NCTC11818; Bifidobacterium longum NCTC 11818; Table 5; read-out: Minimal Inhibitory Concentration (MIC)
Bacteroides fragilis = test: MIC against intestinal flora organisms, Bacteroides fragilis; assay type: cell-based; details: NCTC9343; Bacteroides fragilis NCTC 9343; Table 5; read-out: Minimal Inhibitory Concentration (MIC)
[4] = tested on: Bacteroides thetaiotaomicron; test: MIC against intestinal flora organisms, Bacteroides thetaiotaomicron; assay type: cell-based; details: NCTC10582; Bacteroides thetaiotaomicron NCTC 10582; Table 5; read-out: Minimal Inhibitory Concentration (MIC)
[5] = tested on: C. difficile strain VPI 10463; test: Hamster model of C. difficile associated cecitis, first experiment (FIG. 1); assay type: in vivo; details: C. difficile VPI 10463, three times daily at 50 mg/kg/day, 5-day dosing period, groups of 6
Experimental: In the first experiment (FIG. 1) groups of 6 animals were dosed with approximately 10^7 cells of C. difficile strain VPI 10463 and 24 hours later with a subcutaneous dose of 10 mg/kg clindamycin phosphate.
The procedure as described induced a C. difficile infection in the test animals, from which all animals treated only with vehicle died within 3 days.

Micrococcus luteus = test: In vitro antibacterial activity against Micrococcus luteus during SIF incubation; assay type: cell-based; details: after incubation in SIF
Experimental: as §1

CC[C@H](C)[C@@H]1NC(=O)[C@@H]2NC(=O)[C@H](CC(C)C)NC(=O)[C@H](NC(=O)[C@@H]3CSC[C@@H](N)C(=O)N[C@@H](CO)C(=O)NCC(=O)N[C@@H](Cc4c[nH]c5ccccc45)C(=O)N[C@@H](C(C)C)C(=O)N3)[C@H](C)SC[C@H](NC(=O)[C@H](CCC(=O)O)NC1=O)C(=O)NCC(=O)N[C@H]1C(=O)N[C@@H](CC(C)C)C(=O)N[C@@H](C(C)C)C(=O)N[C@@H](CS[C@H]2C)C(=O)N[C@@H](C)C(=O)N[C@H](C(=O)NCCO)CS[C@H]1C [Compound I, Deoxy-Actagardine B N-[2-ethanolamine]monocarboxamide]
solubility (Water solubility): 15 mg/mL (≈ 7820 µM) | degradation in Simulated Gastric Fluid [1]: did not show appreciable degradation | material recovered from plasma or urine [2]: No material was recovered

CN[C@H](CC(C)C)C(=O)N[C@H]1C(=O)N[C@@H](CC(N)=O)C(=O)N[C@H]2C(=O)N[C@H]3C(=O)N[C@H](C(=O)N[C@H](C(=O)O)c4cc(O)cc(O)c4-c4cc3ccc4O)[C@H](O)c3ccc(c(Cl)c3)Oc3cc2cc(c3O[C@@H]2O[C@H](CO)[C@@H](O)[C@H](O)[C@H]2O[C@H]2C[C@](C)(N)[C@H](O)[C@H](C)O2)Oc2ccc(cc2Cl)[C@H]1O [Vancomycin, vancomycin, reference compound]
MIC (E. faecium; ATCC19579, E. faecium (VSE) ATCC 19579, Table 5, read-out: Minimal Inhibitory Concentration (MIC)): 0.5 µg/mL (≈ 0.345 µM) | MIC (E. faecium; ATCC29212, read-out: Minimal Inhibitory Concentration (MIC), E. faecium (VSE) ATCC 29212, Table 5): 4 µg/mL (≈ 2.76 µM) | MIC (E. faecium; E. faecium 19579, Table 2, read-out: MIC): 4 µg/mL (≈ 2.76 µM) | MIC (E. faecium; E. faecium 7131121, Table 2, read-out: MIC): > 64 µg/mL | MIC (E. faecium; VRE, E. faecium (VRE) (clinical isolate), Table 5, first isolate, read-out: Minimal Inhibitory Concentration (MIC)): > 64 µg/mL | MIC (E. faecium; VRE, E. faecium (VRE) (clinical isolate), Table 5, second isolate, read-out: Minimal Inhibitory Concentration (MIC)): > 64 µg/mL | MIC (E. faecalis): 4 µg/mL (≈ 2.76 µM) | MIC (S. aureus; S. aureus R33): 1 µg/mL (≈ 0.69 µM) | MIC (S. aureus; S. aureus SH1000): 2 µg/mL (≈ 1.38 µM) | MIC (S. epidermidis): 2 µg/mL (≈ 1.38 µM) | MIC (M. luteus): 2 µg/mL (≈ 1.38 µM) | MIC (S. pneumoniae): > 64 µg/mL | MIC (Clostridium difficile; Clostridioides difficile, C. difficile 027C, Table 4, read-out: MIC): 0.5 µg/mL (≈ 0.345 µM) | MIC (Clostridium difficile; Clostridioides difficile, C. difficile 027SM, Table 4, read-out: MIC): 0.5 µg/mL (≈ 0.345 µM) | MIC (Clostridium difficile; Clostridioides difficile, C. difficile 19126, Table 4, read-out: MIC): 1 µg/mL (≈ 0.69 µM) | MIC (Clostridium difficile; Clostridioides difficile, C. difficile 37779, Table 4, read-out: MIC): 1 µg/mL (≈ 0.69 µM) | MIC (Clostridium difficile; Clostridioides difficile, C. difficile B32, Table 4, read-out: MIC): 1 µg/mL (≈ 0.69 µM) | MIC (Clostridium difficile; Clostridioides difficile, C. difficile E4, Table 4, read-out: MIC): 1 µg/mL (≈ 0.69 µM) | MIC (Clostridium difficile; Clostridioides difficile, C. difficile E16, Table 4, read-out: MIC): 1 µg/mL (≈ 0.69 µM) | MIC (Clostridium difficile; Clostridioides difficile, C. difficile E101, Table 4, read-out: MIC): 1 µg/mL (≈ 0.69 µM) | MIC (Clostridium difficile; Clostridioides difficile, C. difficile P24, Table 4, read-out: MIC): 1 µg/mL (≈ 0.69 µM) | MIC (Clostridium difficile; Clostridioides difficile, C. difficile P49, Table 4, read-out: MIC): 0.5 µg/mL (≈ 0.345 µM) | MIC (Clostridium difficile; Clostridioides difficile, C. difficile P59, Table 4, read-out: MIC): 1 µg/mL (≈ 0.69 µM) | MIC (Clostridium difficile; Clostridioides difficile, C. difficile P62, Table 4, read-out: MIC): 0.5 µg/mL (≈ 0.345 µM) | Minimal Inhibitory Concentration (MIC) (E. coli; E. coli DC2 (membrane more susceptible), Table 5, first line): >64 µg/mL | MIC (E. coli; ATCC25922, E. coli ATCC 25922, Table 5): > 64 µg/mL | MIC (E. coli; E. coli DC2 (membrane more susceptible), Table 5, second line): > 64 µg/mL | MIC [3]: 1 µg/mL (≈ 0.69 µM) | MIC (Bifidobacterium longum): 1 to 2 µg/mL (≈ 0.69 to 1.38 µM) | MIC (Bacteroides fragilis): 32 µg/mL (≈ 22.1 µM) | MIC [4]: 64 µg/mL (≈ 44.2 µM) | survival of infected animals [5]: survived for the duration of the entire 5-day dosing period

Deoxy-Actagardine B N-[2-hydroxy-2-phenylethylamine]monocarboxamide [Compound XX]
MIC (Clostridium difficile; C. difficile 027C, Table 4A): 2 | MIC (Clostridium difficile; C. difficile 630, Table 4A): 2 | MIC (Clostridium difficile; C. difficile 19126, Table 4A): 2 | MIC (Clostridium difficile; C. difficile 37779, Table 4A): 2

Deoxy-actagardine B (2-hydroxypiperazine) monocarboxamide [Compound XXIII]
MIC (Clostridium difficile; C. difficile 027C, Table 4A): 4 | MIC (Clostridium difficile; C. difficile 630, Table 4A): 2 | MIC (Clostridium difficile; C. difficile 19126, Table 4A): 4 | MIC (Clostridium difficile; C. difficile 37779, Table 4A): 4

Deoxy-actagardine B (L-serine methyl ester) monocarboxamide [Compound XXI]
MIC (Clostridium difficile; C. difficile 027C, Table 4A): 2 | MIC (Clostridium difficile; C. difficile 630, Table 4A): 4 | MIC (Clostridium difficile; C. difficile 19126, Table 4A): 4 | MIC (Clostridium difficile; C. difficile 37779, Table 4A): 4

Deoxyactagardine B (N-(2-hydroxyethyl)ethylenediamine) monocarboxamide [Compound XXII]
MIC (Clostridium difficile; C. difficile 027C, Table 4A): 2 | MIC (Clostridium difficile; C. difficile 630, Table 4A): 2 | MIC (Clostridium difficile; C. difficile 19126, Table 4A): 2 | MIC (Clostridium difficile; C. difficile 37779, Table 4A): 2

mersacidin
in vitro activity against M. luteus during the course of the experiment (Micrococcus luteus): remained unaltered
